Laboratory results from patent US11230526B1, “Cylcoalkenyl derivatives useful as agonists of the GPR120 and/or GPR40 receptors” (Janssen Pharmaceutica NV, priority 2018, dated 2022).

Legend:
Format in all cases: cell-based
Human GPR120 short form [1] = biological target: T1, Human GPR120 short form (Homo sapiens, UniProt Q5NUL3); assay: Human GPR120 calcium flux assay, Procedure Calcium A (2500 cells/well)
T1 construct: expressed in transfected cells
T1 sequence (Q5NUL3 1-361): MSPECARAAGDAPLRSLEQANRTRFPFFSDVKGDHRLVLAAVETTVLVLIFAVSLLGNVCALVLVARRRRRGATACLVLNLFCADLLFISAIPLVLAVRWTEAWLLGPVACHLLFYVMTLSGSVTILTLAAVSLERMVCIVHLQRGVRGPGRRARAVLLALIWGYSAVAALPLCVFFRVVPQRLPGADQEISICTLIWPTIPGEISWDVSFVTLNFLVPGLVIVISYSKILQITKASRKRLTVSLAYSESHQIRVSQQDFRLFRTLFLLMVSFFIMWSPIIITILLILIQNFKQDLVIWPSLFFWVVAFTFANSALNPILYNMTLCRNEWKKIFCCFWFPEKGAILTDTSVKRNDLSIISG
From the text: Human GPR120 in Calcium Flux Assay
This in vitro assay serves to assess test compound agonist activity against the short splice variant (SVS with Accession number NM_001195755.1 confirmed by sequencing data) of the GPR120 receptor. The Human Short splice variant #2 (NM_001195755.1) is missing an in-frame coding exon compared to variant 1 (the Human Long splice variant NM_181745.3), resulting in a shorter isoform (GPR120-S) lacking a 16 aa protein segment compared to isoform GPR120-L. The assay platform utilizes HEK-293 cells stably transfected to express the Human GPR120 short form. These cells are first loaded with the Ca^+2 sensitive dye, Fluo-4 NW. Upon stimulation, intracellular released Ca^+2 can bind to the dye and alter its fluorescence intensity. This increase in fluorescence signal, and thus the flux in intracellular [Ca^2+], is detected and quantitated by fluorescence imaging using a FLIPR reader. The effect of the agonist is measured as a function of concentration and used to calculate an EC50 based upon a response curve.
In this procedure 2500 cells/well were employed.
A Human GPR120 clone (Genbank accession number NM_001195755.1) was placed into the pcDNA3.1 mammalian expression vector carrying the neomycin resistance gene. A stable mammalian cell was generated by placing the above clone into a HEK293 background. Clonal cells responding to long chain fatty acids had expression levels of GPR120 confirmed by RT-qPCR. Human HEK-GPR120 cells were cultured in Dulbecco's Modified Eagle's Medium (DMEM)/F12 medium supplemented with 10% fetal bovine serum (FBS), 1% L-Glutamine and 1% penicillin/streptomycin and 0.5 mg/ml G-418. Cells were split 2 times a week to keep the cells in the log-phase growth.
In preparation for the assay, HEK cells stably transfected with Human GPR120 (2.5K cells per well in 25 uL growth medium) were seeded into 384-well plates and then incubated overnight (37° C., 5% CO2). The next day, the media was changed to 20 μL assay buffer and the cell starved for 1 h at 37° C. The dye loading solution (2× dye) was prepared using 10 mL assay buffer, 100 μL of 250 mM probenecid, 1 bottle of Component A, and 20 μl of dye in DMSO. Twenty μL of the 2× dye loading buffer was then added to each well. The plates were incubated at 37° C. for 30 min, then at room temperature for an additional 15 minutes, before performing the assay on FLIPR.
The assay was performed on a FLIPR plate reader using the following parameters. Baseline was read for 10 seconds at 1 sec intervals. The program was set to transfer 10 μL of ligand from compound plate to cell plate after baseline reading. Aspiration was executed at: 10 μL/sec speed, 4.6 μL height, Dispensing was executed at: 30 μL/sec speed, 45 μL height. After compound addition, each well was read for 300 sec, with measurements collected at 1 sec intervals.
The kinetic data from the FLIPR was based upon a 5 minute window for data collection. The fluorescence of each sample well was used for individual calculations of a normalized RFU value, which was defined as maximum response minus the minimum response. The normalized fluorescence reading (RFU) was calculated as follows: RFU=Fmax−Fmin
The Fitting Equation was: Y=Bottom+(Top-Bottom)/(1+10^((Log EC50−X)*HillSlope)), where X is the log of the concentration and Y is the response.

human GPR40 = biological target: T2, human GPR40 (Homo sapiens, UniProt O14842); assay: GPR40 calcium flux assay, human GPR40; conditions: HEK293 cells stably expressing GPR40; table does not say human or rat
T2 construct: expressed in transfected cells
How it was run: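 Cells preincubated 1 h at 37° C. in HBSS, 20 mM HEPES, 0.1% BSA, then Fluo 8 calcium dye 30 min at 37° C. and 15 min at room temperature.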

Human GPR120 short form [2] = biological target: T1, Human GPR120 short form; assay: Human GPR120 calcium flux assay, Procedure Calcium B (4200 cells/well)
How it was run: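 HEK293 cells stably expressing human GPR120 (NM_001195755.1), 4200 cells/well, starved 1 h and loaded with Fluo-4 NW plus probenecid. Ligand-evoked calcium flux read on FLIPR for 300 s after a 10 s baseline. RFU = Fmax−Fmin; EC50 from four-parameter concentration-response fit.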

[3] = biological target: T3, long form of human GPR120 (Homo sapiens, UniProt Q5NUL3); assay: Human GPR120 DiscoveRx PathHunter Beta-Arrestin assay, Procedure β-arrestin A
T3 construct: host or cells: PathHunter CHO-K1 GPR120 β-Arrestin Cell Line
How it was run: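 PathHunter CHO-K1 cells expressing long-form human GPR120 (3000/well) were seeded overnight. They were then preincubated 60 min in HBSS with 20 mM HEPES and 0.1% BSA, pH 7.4, and exposed to compound for 90 min at 37 °C. β-Arrestin recruitment was read as β-gal complementation luminescence. EC50 came from % activity versus positive control, Hill slope fixed at 1.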

T3 sequence (Q5NUL3 1-377 isoform Q5NUL3-1): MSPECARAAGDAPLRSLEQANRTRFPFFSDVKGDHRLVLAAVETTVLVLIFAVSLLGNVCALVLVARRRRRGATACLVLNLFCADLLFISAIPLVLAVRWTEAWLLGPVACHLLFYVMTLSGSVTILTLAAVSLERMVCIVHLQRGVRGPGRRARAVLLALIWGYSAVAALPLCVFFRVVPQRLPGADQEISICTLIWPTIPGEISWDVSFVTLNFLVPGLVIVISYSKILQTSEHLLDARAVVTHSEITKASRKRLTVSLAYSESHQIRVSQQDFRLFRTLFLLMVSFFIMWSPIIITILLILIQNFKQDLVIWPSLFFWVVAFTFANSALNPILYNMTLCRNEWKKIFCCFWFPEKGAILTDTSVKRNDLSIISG
T3 sequence (P32121 whole entry partner): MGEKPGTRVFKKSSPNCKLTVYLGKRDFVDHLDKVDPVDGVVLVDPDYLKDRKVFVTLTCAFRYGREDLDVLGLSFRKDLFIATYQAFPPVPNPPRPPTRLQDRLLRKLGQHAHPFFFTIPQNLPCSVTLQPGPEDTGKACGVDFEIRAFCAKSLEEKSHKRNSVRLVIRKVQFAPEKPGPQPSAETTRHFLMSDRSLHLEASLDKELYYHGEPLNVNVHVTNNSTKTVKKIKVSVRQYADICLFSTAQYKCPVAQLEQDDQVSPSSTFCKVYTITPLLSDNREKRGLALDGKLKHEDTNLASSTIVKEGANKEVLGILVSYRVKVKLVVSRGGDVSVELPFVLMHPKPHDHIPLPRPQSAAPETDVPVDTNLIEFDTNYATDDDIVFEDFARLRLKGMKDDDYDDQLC
T2 sequence (O14842 whole entry): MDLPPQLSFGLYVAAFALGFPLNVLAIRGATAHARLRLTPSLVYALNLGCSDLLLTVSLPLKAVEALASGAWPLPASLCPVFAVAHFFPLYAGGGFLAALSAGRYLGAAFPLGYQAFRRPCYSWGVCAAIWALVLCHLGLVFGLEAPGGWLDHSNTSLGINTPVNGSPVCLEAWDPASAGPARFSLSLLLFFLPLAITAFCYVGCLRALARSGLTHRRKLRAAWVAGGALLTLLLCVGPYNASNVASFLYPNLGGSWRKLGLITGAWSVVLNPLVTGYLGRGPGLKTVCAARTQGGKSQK

Compound | EC50 (Human GPR120 short form [1]) [nM] | EC50 (human GPR40) [nM] | EC50 (Human GPR120 short form [2]) [nM] | EC50 [3] [nM]
CC(=O)Nc1ccc(C2=C(COc3ccc(CCC(=O)O)c(C)c3C)CCC2)cc1 [Compound 51, 3-[4-[[2-(4-acetamidophenyl)cyclopenten-1-yl]methoxy]-2,3-dimethyl-phenyl]Propanoic Acid] | > 20000 | – | – | –
O=C(O)CCc1cc(F)c(OCC2=C(c3ccc(F)c(F)c3)CCC(F)(F)C2)c(F)c1 [Compound 533, 3-[4-[[2-(3,4-difluorophenyl)-5,5-difluoro-cyclohexen-1-yl]methoxy]-3,5-difluoro-phenyl]Propanoic Acid] | – | > 5000 | 309 | 532
Cc1c(CCC(=O)O)ccc(OCC2=C(c3ccc(F)cc3F)CCC(F)(F)C2)c1C [Compound 534, 3-[4-[[2-(2,4-difluorophenyl)-5,5-difluoro-cyclohexen-1-yl]methoxy]-2,3-dimethyl-phenyl]Propanoic Acid] | – | > 5000 | 96 | 157
Cc1cc(CCC(=O)O)ccc1OCC1=C(c2ccc(F)cc2F)CCC(F)(F)C1 [Compound 535, 3-[4-[[2-(2,4-difluorophenyl)-5,5-difluoro-cyclohexen-1-yl]methoxy]-3-methyl-phenyl]Propanoic Acid] | – | > 5000 | 120 | 108
O=C(O)CCc1cc(F)c(OCC2=C(c3ccc(F)cc3F)CCC(F)(F)C2)c(F)c1 [Compound 536, 3-[4-[[2-(2,4-difluorophenyl)-5,5-difluoro-cyclohexen-1-yl]methoxy]-3,5-difluoro-phenyl]Propanoic Acid] | – | > 5000 | 207 | 215
Cc1c(CCC(=O)O)ccc(OCC2=C(c3ccccc3)CCC(F)(F)C2)c1C [Compound 537, 3-[4-[(5,5-difluoro-2-phenyl-cyclohexen-1-yl)methoxy]-2,3-dimethyl-phenyl]Propanoic Acid] | – | > 5000 | 83 | 161
O=C(O)CCc1cc(F)c(OCC2=C(c3ccccc3)CCC(F)(F)C2)c(F)c1 [Compound 539, 3-[4-[(5,5-difluoro-2-phenyl-cyclohexen-1-yl)methoxy]-3,5-difluoro-phenyl]Propanoic Acid] | – | > 5000 | 192 | 292
Cc1cc(CCC(=O)O)ccc1OCC1=C(c2ccc(Cl)s2)CCC(F)(F)C1 [Compound 542, 3-[4-[[2-(5-chloro-2-thienyl)-5,5-difluoro-cyclohexen-1-yl]methoxy]-3-methyl-phenyl]Propanoic Acid] | – | 2860 | 94 | 182
O=C(O)CCc1cc(F)c(OCC2=C(c3ccc(Cl)s3)CCC(F)(F)C2)c(F)c1 [Compound 543, 3-[4-[[2-(5-chloro-2-thienyl)-5,5-difluoro-cyclohexen-1-yl]methoxy]-3,5-difluoro-phenyl]Propanoic Acid] | – | > 5000 | 191 | 287
Cc1cc(CCC(=O)O)ccc1OCC1=C(c2cnn(C)c2)CCC(F)(F)C1 [Compound 546, 3-[4-[[5,5-difluoro-2-(1-methylpyrazol-4-yl)cyclohexen-1-yl]methoxy]-3-methyl-phenyl]Propanoic Acid] | – | 2350 | 754 | 1650
Cc1cc(CCC(=O)O)ccc1OCC1=C(c2cncs2)CCC(F)(F)C1 [Compound 548, 3-[4-[(5,5-difluoro-2-thiazol-5-yl-cyclohexen-1-yl)methoxy]-3-methyl-phenyl]Propanoic Acid] | – | 3490 | 500 | 1340
Cc1ncc(C2=C(COc3ccc(CCC(=O)O)cc3C)CC(F)(F)CC2)s1 [Compound 550, 3-[4-[[5,5-difluoro-2-(2-methylthiazol-5-yl)cyclohexen-1-yl]methoxy]-3-methyl-phenyl]Propanoic Acid] | – | 642 | 482 | 437
Cc1ncc(C2=C(COc3ccc(CCC(=O)O)c(C)c3C)CC(F)(F)CC2)s1 [Compound 553, 3-[4-[[5,5-difluoro-2-(2-methylthiazol-5-yl)cyclohexen-1-yl]methoxy]-2,3-dimethyl-phenyl]Propanoic Acid] | – | 2340 | 525 | 727
Cc1c(CCC(=O)O)ccc(OCC2=C(c3ccc(C#N)s3)CCC(F)(F)C2)c1C [Compound 558, 3-[4-[[2-(5-cyano-2-thienyl)-5,5-difluoro-cyclohexen-1-yl]methoxy]-2,3-dimethyl-phenyl]Propanoic Acid] | – | > 5000 | 381 | 1310
Cc1cc(CCC(=O)O)ccc1OCC1=C(c2cccs2)CCC(F)(F)C1 [Compound 560, 3-[4-[[5,5-difluoro-2-(2-thienyl)cyclohexen-1-yl]methoxy]-3-methyl-phenyl]Propanoic Acid] | – | 4100 | 118 | 175
Cc1ccc(C2=C(COc3c(F)cc(CCC(=O)O)cc3F)CC(F)(F)CC2)s1 [Compound 562, 3-[4-[[5,5-difluoro-2-(5-methyl-2-thienyl)cyclohexen-1-yl]methoxy]-3,5-difluoro-phenyl]Propanoic Acid] | – | > 5000 | 119 | 245
Cc1cc(CCC(=O)O)ccc1OCC1=C(c2ccc(Cl)cc2)CC(F)(F)CC1 [Compound 566, 3-[4-[[2-(4-chlorophenyl)-4,4-difluoro-cyclohexen-1-yl]methoxy]-3-methyl-phenyl]Propanoic Acid] | – | 3340 | 165 | 209
O=C(O)CCc1cc(F)c(OCC2=C(c3ccco3)CCC(F)(F)C2)c(F)c1 [Compound 569, 3-[4-[[5,5-difluoro-2-(2-furyl)cyclohexen-1-yl]methoxy]-3,5-difluoro-phenyl]Propanoic Acid] | – | > 5000 | 299 | 519
N#Cc1ccc(C2=C(COc3c(F)cc(CCC(=O)O)cc3F)CC(F)(F)CC2)s1 [Compound 572, 3-[4-[[2-(5-cyano-2-thienyl)-5,5-difluoro-cyclohexen-1-yl]methoxy]-3,5-difluoro-phenyl]Propanoic Acid] | – | > 5000 | 641 | 1010
Cc1cc(CCC(=O)O)ccc1OCC1=C(c2ccc(C#N)s2)CCC(F)(F)C1 [Compound 573, 3-[4-[[2-(5-cyano-2-thienyl)-5,5-difluoro-cyclohexen-1-yl]methoxy]-3-methyl-phenyl]Propanoic Acid] | – | 4500 | 444 | 643
